Assay results reported in patent US20190210969A1, “INTRAESOPHAGEAL ADMINISTRATION OF TARGETED NITROXIDE AGENTS FOR PROTECTION AGAINST IONIZING IRRADIATION-INDUCED ESOPHAGITIS” (University of Pittsburgh - Of the Commonwealth System of …, priority 2010, published 2019).

Key:
[1] = tested on: mice exposed to total body irradiation; experiment: Survival of mice after total body irradiation; assay type: in vivo, mouse; conditions: for protection from death: vs TEMPO or F14 alone, preliminary data
Method: In FIG. 4A, mice received intraperitoneal injection of 10 mg per kilogram of each of the chemicals indicated, then 24 hours later received 9.75 Gy total body irradiation according to published methods. Mice were followed for survival according to IACUC regulations. […] (P=0.0008). In FIG. 4B, mice received intraperitoneal injection of JP4-039 either 10 minutes before (square symbols) or 4 hours after (triangle symbols) irradiation with 9.75 Gy.
Groups of 15 mice received intraperitoneal injection of 10 mg. per kilogram of each indicated GS-nitroxide compound or carrier (Cremphora plus alcohol at 1 to 1 ratio, then diluted 1 to 10 in distilled water). Mice received 10 mg per kilogram intra-peritoneal injection 24 hours prior to total body irradiation. Control mice received radiation alone. […] (P=0.0005) FIG. 6 is a graph showing that GS-nitroxide JP4-039 is an effective hematopoietic cell radiation mitigator when delivered 24 hr after irradiation. Irradiation survival curves were performed on cells from the 32D cl 3 mouse hematopoietic progenitor cell line, incubated in 10 μM JP4-039 for 1 hour before irradiation, or plated in methylcellulose containing 10 μM […] after irradiation. Cells were irradiated from 0 to 8 Gy, plated in 0.8% methylcellulose containing media, and incubated for 7 days at 37° C. Colonies of greater than 50 cells were counted and data analyzed by linear quadratic and single-hit, multi-target models.
The above methods are based on preliminary data showing that JP4-039 administered via i.p. injection at 10 mg/kg 10 minutes before either […] [FIG. 21A] or 9.15 Gy [FIG. 21B] total-body irradiation protected C57BL/6NHsd female mice from esophagitis-induced death compared to those that received either TEMPO or F14 alone (p=0.0301 and p=0.010, respectively).

[2] = tested on: GFP+ cells in the esophagus; experiment: GFP+ marrow-derived cells in the irradiated esophagus (cell sorting); assay type: in vivo, mouse
Excerpt: FIGS. 18A-F. Detection of GFP+ marrow-derived cells in the irradiated mouse esophagus after intravenous transplant. Mice were irradiated to 29 Gy to the esophagus on day 0, and then injected with 1×10^7 GFP+ marrow cells intravenously on day 5 according to published methods (Epperly M W, et al. Int J Cancer (Radiat Oncol Invest) 96: 221-233, 2001; Epperly M W, et al. In Vivo 19: 997-1004, 2005; and Epperly M W, et al. Protection of esophageal stem cells from ionizing irradiation by MnSOD-plasmid liposome gene therapy. In Vivo 19: 965-974, 2005). Five esophagus samples were removed from each animal in the various subgroups on days 1 (FIG. 18A), 3 (FIG. 18B), 7 (FIG. 18C), 14 (FIG. 18D), 28 (FIG. 18E) and 60 (FIG. 18F) after marrow injection. Samples of excised esophagi were prepared as single cell suspensions and then analyzed by cell […] for GFP+ cells/106 esophagus cells. Each symbol represents one esophagus.
Bone marrow transplantation, esophageal excision and cell sorting. Five days after irradiation, the time shown to optimize marrow cell homing to the irradiated esophagus, mice received intravenous injection of 1.0×10^7 C57BL/6HNsd GFP+ male bone marrow cells prepared as single-cell suspension from donor male mice according to published methods (Niu Y, et al. Irradiated esophageal cells are protected from radiation-induced recombination by MnSOD gene therapy. Rad Res 173: 453-461, 2010 and Niu Y, et al. Intraesophageal MnSOD-plasmid liposome administration enhances engraftment and self-renewal capacity of bone marrow derived progenitors of esophageal squamous epithelium. Gene Therapy 15: 347-356, 2008). At serial time points after marrow transplantation, esophagus specimens were removed, and single cell suspensions prepared according to published methods (Id.). The esophagus cell suspensions were sorted for GFP+ cells. The number of GFP+ cells per 10^6 was calculated as described previously (Id.). (GFP+) cells were placed on slides, and stained for detection of donor cell markers (Id.).
Statistics. In vitro data analysis and estimation of survival of mice were performed using published statistical methods (Epperly M W, et al. Radiat Res 155: 2-14, 2001). The Kruskal-Wallis test and post-hoc Mann-Whitney test were used to evaluate donor marrow cells in the esophagus as described (Niu Y, et al. Rad Res 173: 453-461, 2010). A SAS statistical program was used to perform the statistical analysis (SAS Institute, Cary, N.C., USA).

## CC(C)C[C@@H](/C=C/CC(=O)NC1CC(C)(C)N([O])C(C)(C)C1)NC(=O)OC(C)(C)C [JP4-039, TEMPO-4-yl-(S,E)-5-(tert-butoxycarbonylamino)-7-methyloct-3-enamide]
[1]; 10 mg/kg i.p. 10 minutes before 9/5 Gy total-body irradiation, p=0.0301
  protection from death: protected
[1]; 10 mg/kg i.p. 10 minutes before 9.15 Gy total-body irradiation, p=0.010
  protection from death: protected
[1]; 10 mg/kg i.p. 24 hours before 9.75 Gy total body irradiation, vs irradiated control, P=0.0008
  survival of mice: significant increase in survival
[1]; 10 mg/kg i.p. 24 hours prior to 9.5 Gy total body irradiation, P=0.0005
  survival of mice: increases survival
[2]; 29 Gy + JP4-039 (after irradiation), day 1
  number of GFP+ cells per 10^6 cells in the esophagus, median (inter-quartile range): 0.5 (0-1.6) per 10^6 cells
[2]; 29 Gy + JP4-039 (after irradiation), day 3
  number of GFP+ cells per 10^6 cells in the esophagus, median (inter-quartile range): 1.5 (0.5-1.7) per 10^6 cells
[2]; 29 Gy + JP4-039 (after irradiation), day 7
  number of GFP+ cells per 10^6 cells in the esophagus, median (inter-quartile range): 0 (0-0.3) per 10^6 cells
[2]; 29 Gy + JP4-039 (after irradiation), day 28
  number of GFP+ cells per 10^6 cells in the esophagus, median (inter-quartile range): 0.85 (0-4.15) per 10^6 cells
[2]; JP4-039 + 29 Gy (before irradiation), day 1
  number of GFP+ cells per 10^6 cells in the esophagus, median (inter-quartile range): 0.9 (0.3-2.6) per 10^6 cells
[2]; JP4-039 + 29 Gy (before irradiation), day 3
  number of GFP+ cells per 10^6 cells in the esophagus, median (inter-quartile range): 0.3 (0-3.1) per 10^6 cells
[2]; JP4-039 + 29 Gy (before irradiation), day 7
  number of GFP+ cells per 10^6 cells in the esophagus, median (inter-quartile range): 0.28 (0.13-0.65) per 10^6 cells
[2]; JP4-039 + 29 Gy (before irradiation), day 28
  number of GFP+ cells per 10^6 cells in the esophagus, median (inter-quartile range): 0 (0-0) per 10^6 cells
[2]; JP4-039 + 29 Gy (before irradiation), day 60
  number of GFP+ cells per 10^6 cells in the esophagus, median (inter-quartile range): 0 (0-0) per 10^6 cells
